Assay results from paper PMC7554048, “FBI-1 enhanced the resistance of triple-negative breast cancer cells to chemotherapeutic agents via the miR-30c/PXR axis” (Cell Death & Disease, 2020).

Assay: Olaparib sustained in cultured TNBC cells, LC-MS/MS (half-life)
Type: in vitro ADME, human
Conditions: TNBC cells (PDC No. 3 and 9) overexpressing FBI-1
Method: TNBC cells transfected with plasmids were used for the pharmacokinetic experiments to examine the amount of olaparib sustained in the cells. For the cell-based experiments, cells were treated with 1 μmol/L concentration of olaparib for 12 h[33]. Then, cells were harvested at indicated time-points. For the animal experiments, TNBC cells were injected into the subcutaneous position to form subcutaneous tumor tissues. After 2–3 weeks’ growth, when the tumor volumes reached 1500–2000 mm^3, the solution of olaparib was injected into the subcutaneous tumors. Then, the tumor tissues were harvested at indicated times[34],[35]. The olaparib in cells or tumor tissues was extracted by acetonitrile (ACN), and the amount of olaparib sustained in cells or tumor tissues at each time point was determined by liquid chromatography–mass spectrometry/mass spectrometry (LC-MS/MS), following the methods established by Krens et al.[36]. The sustaining rates of olaparib were calculated as (the amount of olaparib at each time)/(the amount of olaparib at 0-time) × 100%. The sustaining curves or the half-time life (t1/2) of olaparib was obtained by the sustained rates of olaparib.

CC(=O)N1CCN(c2ccc(OCC3COC(Cn4ccnc4)(c4ccc(Cl)cc4Cl)O3)cc2)CC1 (stereo not shown) [ketoconazole]
effect of ketoconazole on FBI-1-accelerated elimination or clearance of olaparib: almost blocked the effect of FBI-1 on olaparib in TNBC cells
